# From patent publication US7902373B2 (Pfizer Inc, priority 2006, dated 2011)
# Counter-ions that a name gives are not always drawn.
# Target: T1, human recombinant H-PGDS (Homo sapiens, UniProt O60760)
# Test: Slightly modified h-PGDS TBA enzyme assay (Examples 623 onwards)
# Type: biochemical
# Conditions: not given
# Protocol: Prostaglandin D Synthase (PGDS) converts the substrate prostaglandin H2 (PGH2) to prostaglandin D2.
# Examples 623 onwards were tested in a slightly modified assay: The enzyme assay (30 μls during biological process) contained 100 mM Trizma pH 8.0, 100 μM MgCl2, 0.1 mg/ml IgG Rabbit serum, 5.0 μM PGH2 (Cayman; ethanol solution, #17020), 2.5 mM L-Glutathione (Sigma; reduced form #G4251), 1:40,000 human recombinant H-PGDS (from 1 mg/ml), 0.5% DMSO and inhibitor (varying concentration). 3 μls of diluted inhibitor (dissolved in DMSO) was plated into a 384-well assay plate followed by a 24 μl addition of an enzyme solution containing h-PGDS, Trizma, MgCl2, IgG and L-Glutathione. After pre-incubation of inhibitor and enzyme solution for 10 minutes at room temperature, the reaction was initiated with a 3 μl addition of substrate solution in 10 mM HCl. The reaction was terminated after 40 second by the addition of 3 μl stop buffer containing FeCl2 and citric acid. After addition of 45 μl of TBA plates were heated for one hour in a 70° C. oven. Plates were cooled at room temperature overnight and read on a plate reader the next day with excitation @ 530 nm and emission @ 560 nm. IC50's of inhibitors were calculated with a 4-parameter fit using 11 inhibitor concentrations in duplicate with 1/2 log serial dilutions. […] The highest inhibitor concentration tested was typically 10 μM.
# T1 sequence (O60760 whole entry): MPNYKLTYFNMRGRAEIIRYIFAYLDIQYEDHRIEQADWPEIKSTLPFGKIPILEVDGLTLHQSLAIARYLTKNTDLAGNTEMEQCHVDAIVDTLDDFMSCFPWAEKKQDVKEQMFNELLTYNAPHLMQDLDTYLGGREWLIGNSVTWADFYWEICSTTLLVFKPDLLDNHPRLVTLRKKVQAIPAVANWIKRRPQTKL
row,IC50 [nM],SMILES
1,104,"N#Cc1cccc(-c2ccc(C(=O)NC3CCN(CC(F)(F)F)CC3)cn2)c1 [Example 623, 6-(3-Cyanophenyl)-N-[1-(2,2,2-trifluoroethyl)piperidin-4-yl]nicotinamide]"
2,36,"N#Cc1ccccc1-c1ccc(C(=O)NC2CCN(CC(F)(F)F)CC2)cn1 [Example 624, 6-(2-Cyanophenyl)-N-[1-(2,2,2-trifluoroethyl)piperidin-4-yl]nicotinamide]"
3,4.06,"O=C(NC1CCN(c2ncccn2)CC1)c1ccc(-c2ccccc2O)nc1 [Example 625, 6-(2-Hydroxyphenyl)-N-(1-pyrimidin-2-ylpiperidin-4-yl)nicotinamide]"
4,6.75,CC(C)(C)C(=O)N1CCC(NC(=O)c2ccc(-c3ccccc3O)nc2)CC1 [Example 627]
5,6.22,CCOC(=O)N1CCC(NC(=O)c2ccc(-c3ccccc3O)nc2)CC1 [Example 628]
6,22.2,O=C(NC1CCN(CC2CC2)CC1)c1ccc(-c2ccccc2O)nc1 [Example 629]
7,32.8,COCCN1CCC(NC(=O)c2ccc(-c3ccccc3O)nc2)CC1 [Example 630]
8,82.4,CCCN1CCC(NC(=O)c2ccc(-c3ccccc3O)nc2)CC1 [Example 631]
9,5.57,O=C(NC1CCN(c2cccnn2)CC1)c1ccc(-c2ccccc2O)nc1 [Example 632]
10,16.6,CC(C)S(=O)(=O)N1CCC(NC(=O)c2ccc(-c3ccccc3O)nc2)CC1 [Example 633]
11,6.13,Cn1nnnc1N1CCC(NC(=O)c2ccc(-c3ccccc3O)nc2)CC1 [Example 634]
12,10.9,O=C(NC1CCN(CC(F)(F)F)CC1)c1ccc(-c2cc(F)ccc2O)nc1 [Example 635]
13,17.2,CC(C)(C)C(=O)N1CCC(NC(=O)c2ccc(-c3cc(F)ccc3O)nc2)CC1 [Example 636]
14,62.4,COCCN1CCC(NC(=O)c2ccc(-c3cc(F)ccc3O)nc2)CC1 [Example 637]
15,83.3,CCCN1CCC(NC(=O)c2ccc(-c3cc(F)ccc3O)nc2)CC1 [Example 638]
16,10000,O=C(NC1CCN(c2cccnn2)CC1)c1ccc(-c2cc(F)ccc2O)nc1 [Example 639]
17,129,CCN1CCC(NC(=O)c2ccc(-c3cc(F)ccc3O)nc2)CC1 [Example 640]
18,13.9,CC(C)S(=O)(=O)N1CCC(NC(=O)c2ccc(-c3cc(F)ccc3O)nc2)CC1 [Example 642]
19,7.77,Cn1nnnc1N1CCC(NC(=O)c2ccc(-c3cc(F)ccc3O)nc2)CC1 [Example 643]
20,0.568,"O=C1CC(NC(=O)c2ccc(-c3cccc(F)c3)nc2)c2ccccc2N1 (stereo not drawn) [Example 650, 6-(3-Fluorophenyl)-N-(2-oxo-1,2,3,4-tetrahydroquinolin-4-yl)nicotinamide]"
21,2.01,"O=C(N[C@H]1[C@@H]2CN(CC(F)(F)F)C[C@@H]21)c1ccc(-c2cccc(F)c2)nc1 [Example 651, 6-(3-Fluorophenyl)-N-((1R,5S,6S)-3-(2,2,2-trifluoroethyl)-3-aza-bicyclo[3.1.0]hexan-6-yl)nicotinamide]"
22,33.8,"CC(=O)N1C[C@@H]2[C@H](C1)[C@H]2NC(=O)c1ccc(-c2cccc(F)c2)nc1 [Example 654, N-[(1R,5S,6s)-3-acetyl-3-azabicyclo[3.1.0]hex-6-yl]-6-(3-fluorophenyl)nicotinamide]"
23,66.8,CCCN1C[C@@H]2[C@H](C1)[C@H]2NC(=O)c1ccc(-c2cccc(F)c2)nc1 [Example 655]

row,SMILES,IC50 [nM]
1,"O=C(N[C@H]1[C@@H]2CNC[C@@H]21)c1ccc(-c2cccc(F)c2)nc1 [Example 653, N-[(1R,5S,6s)-3-azabicyclo[3.1.0]hex-6-yl]-6-(3-fluorophenyl)nicotinamide di-hydrochloride]",177

# Target: T1, human recombinant H-PGDS
# Test: Fluorescence intensity h-PGDS TBA enzyme assay
# Type: biochemical
# Conditions: Examples up to 622 (and 3a, 3b)
row,IC50 [nM],SMILES
1,0.852,"O=C(NC1CCN(CC(F)(F)F)CC1)c1ccc(-c2cccc(F)c2)nc1 [Example 2, 6-(3-Fluorophenyl)-N-(1-(2,2,2-trifluoroethyl)piperidin-4-yl)nicotinamide]"

# Test system: A. suum antigen-induced asthmatic response in conscious sheep
# Test: In vivo assay, anti-asthmatic effects in a sheep model of asthma
# Conditions: i.v. infusion, single dose of 1, 0.3 or 0.1 mg/kg, specific lung resistance (RL)
# Description: In vivo Assay—Anti-Asthmatic Effects in a Sheep Model of Asthma A validated model of A. suum antigen-induced asthmatic response in conscious sheep was used to evaluate the pharmacokinetic properties, inhibition of antigen-induced early and late airway bronchoconstriction in the lung by compound (Abraham, W. M., et al., Am Rev Respir Dis 1991; 143:787-796). […] An aerosol of A. suum extract, generated using a disposable medical nebulizer (Raindrop®, Puritan Bennett) was delivered in at a tidal volume of 500 mL and a rate of 20 breaths/min. A compound of Example 2 was delivered by i.v. infusion over the interval t=0-20 min prior to antigen challenge. A single dose of 1, 0.3 or 0.1 mg//kg was evaluated. Baseline and post-drug measurements of specific lung resistance (RL) were obtained immediately prior to challenge (t=30 min) with A. suum antigen, immediately after challenge and then hourly from 1 to 6 h post challenge and on the half-hour from 6.5, 5-8 h post challenge. Measurements of RL were obtained 24 h post challenge, followed by the 24 h post-challenge dose-response curve for carbachol. […] To assess airway responsiveness, the cumulative carbachol dose in breath units (BU) that increased RL 400% over the post-buffer value (i.e., PC400) were calculated from the dose-response curve. […]
SMILES,early airway response (0-2 h after allergen challenge),late airway response (4-8 h after antigen challenge) inhibited
"O=C(NC1CCN(CC(F)(F)F)CC1)c1ccc(-c2cccc(F)c2)nc1 [Example 2, 6-(3-Fluorophenyl)-N-(1-(2,2,2-trifluoroethyl)piperidin-4-yl)nicotinamide]",not reduced,approximately 60%
